This note sets out measurements from patent US8163700B2, “Inhibitors of myelin-associated glycoprotein (MAG) activity for regulating neural growth and regeneration” (Research Foundation of City University of New York, priority 2002, dated 2012).

“Also recorded” adds a separate entry of the source.

This assay relates to wild-type MAG-expressing cells. The assay can be described thus: Neurite outgrowth on MAG-expressing cells in the presence of MAG, Nogo and OMgp peptides (Example 6). Conditions: tested as described in Example 5; example written in present tense. The format is cell-based. The source says:
Peptides corresponding to amino acid residues […] of MAG (MAG(343-371)), amino acid residues 363-397 (MAG(363-397)), amino acid residues 394-428 (MAG(394-428)), amino acid residues 422-451 (MAG(422-451)), amino acid residues 442-471 (MAG(442-471)), and amino acid residues 461-498 (MAG(461-498)) were synthesized. Peptides were obtained from SynPep Corp. (Dublin, Calif.). MAG(343-371), MAG(363-397) and MAG(394-428) correspond to amino acid residues from the Ig4 domain of MAG. MAG(422-451), MAG(442-471) and MAG(461-498) corresponds to amino acid residues from the Ig5 domain of MAG. […] Results are shown in FIG. 4 (and are represented as number of neurons with processes longer than 2-times the cell diameter). […] Results are shown in FIG. 5 (and are represented as average neurite length for 180-200 neurons).
Peptides corresponding to MAG amino acid residues 437-441 (M437), 446-455 (M446), 450-455 (M450), 466-471 (M466); and 472-477 (M472) are constructed and tested in neurite outgrowth assays as described in Example 5. (See peptides in FIG. 18).
Peptides corresponding to Nogo-66 amino acid residues 13-17 (N13), 22-31(N22-1), 22-34 (N22-2), 26-31 (N26-1); 26-34 (N26-2); 9-33 (N-9-1); 9-34 (N-9-2); 38-62 (N38); 42-47 (N42); and 48-53 (N48) are also constructed and tested in neurite outgrowth assays as described in Example 5.
Peptides corresponding to OMgp amino acid residues 206-210 (O206), 215-224 (O215), 219-224 (O219), 202-226 (O202); 231-255 (O231), 235-240 (O235) 241-246 (O241) are constructed and tested in neurite outgrowth assays as described in Example 5.

“M437: peptide of MAG amino acid residues 437-441 (SEQ ID NO: 17) (NPEPS)”: the “effect on the ability of wild-type MAG-expressing cells to inhibit neurite outgrowth” value (shortened to “effect … to inhibit neurite outgrowth”) is “reduce the ability of the wild-type MAG-expressing cells to inhibit neurite outgrowth”. In the case of “M446: peptide of MAG amino acid residues 446-455 (SEQ ID NO: 18) (LPSRNVTVNE)”, the “effect … to inhibit neurite outgrowth” value is listed as “reduce the ability of the wild-type MAG-expressing cells to inhibit neurite outgrowth”. With “M450: peptide of MAG amino acid residues 450-455 (SEQ ID NO: 19) (NVTVNE)”, the “effect … to inhibit neurite outgrowth” value was “reduce the ability of the wild-type MAG-expressing cells to inhibit neurite outgrowth”. To “M466: peptide of MAG amino acid residues 466-471 (SEQ ID NO: 21) (SGLLLT)” belongs “reduce the ability of the wild-type MAG-expressing cells to inhibit neurite outgrowth”; to “M472: peptide of MAG amino acid residues 472-477 (SEQ ID NO: 22) (SILTLR)”, “reduce the ability of the wild-type MAG-expressing cells to inhibit neurite outgrowth”. Regarding “N38: peptide of Nogo-66 amino acid residues 38-62 (SEQ ID NO: 32) (SNSALGHVNSTIKELRRLFLVDDLV)”, the “effect … to inhibit neurite outgrowth” value is recorded as “reduce the ability of wild-type MAG-expressing cells to inhibit neurite outgrowth; also recorded: reduce the ability of the wild-type MAG-expressing cells to inhibit neurite outgrowth”. For “N42: peptide of Nogo-66 amino acid residues 42-47 (EEDEDE; Nogo-66; UniProt Q9NQC3 42-47, looked up, fragment)” the value was “reduce the ability of wild-type MAG-expressing cells to inhibit neurite outgrowth; also recorded: reduce the ability of the wild-type MAG-expressing cells to inhibit neurite outgrowth”. Take “N48: peptide of Nogo-66 amino acid residues 48-53 (DLEELE; Nogo-66; UniProt Q9NQC3 48-53, looked up, fragment)”: the “effect … to inhibit neurite outgrowth” value is reported as “reduce the ability of wild-type MAG-expressing cells to inhibit neurite outgrowth; also recorded: reduce the ability of the wild-type MAG-expressing cells to inhibit neurite outgrowth”.

On to “N-9-1: peptide of Nogo-66 amino acid residues 9-33 (LVSSSDSPPRPQPAFKYQFVREPED; Nogo-66; UniProt Q9NQC3 9-33, looked up, fragment)”, for which the “effect … to inhibit neurite outgrowth” value was “reduce the ability of wild-type MAG-expressing cells to inhibit neurite outgrowth; also recorded: reduce the ability of the wild-type MAG-expressing cells to inhibit neurite outgrowth”. Turning to “N-9-2: peptide of Nogo-66 amino acid residues 9-34 (LVSSSDSPPRPQPAFKYQFVREPEDE; Nogo-66; UniProt Q9NQC3 9-34, looked up, fragment)”, the “effect … to inhibit neurite outgrowth” value was “reduce the ability of wild-type MAG-expressing cells to inhibit neurite outgrowth; also recorded: reduce the ability of the wild-type MAG-expressing cells to inhibit neurite outgrowth”. For the substance “O202: peptide of OMgp amino acid residues 202-226 (SEQ ID NO: 38) (KFTFIPEQSFDQLLQLQEITLHNNR)”, the “effect … to inhibit neurite outgrowth” value is “reduce the ability of the wild-type MAG-expressing cells to inhibit neurite outgrowth”.

Take “O206: peptide of OMgp amino acid residues 206-210 (SEQ ID NO: 35) (IPEQS)”: the “effect … to inhibit neurite outgrowth” value is on record as “reduce the ability of the wild-type MAG-expressing cells to inhibit neurite outgrowth”. With “O215: peptide of OMgp amino acid residues 215-224 (SEQ ID NO: 36) (LQLQEITLHN)”, the “effect … to inhibit neurite outgrowth” value is listed as “reduce the ability of the wild-type MAG-expressing cells to inhibit neurite outgrowth”.
